Measurements from patent US9056888B2 (priority 2011, dated 2015).
“Also recorded” adds a separate entry of the source. Where two headings read alike, the source gives them in different places.

Tests used:
HIV-1 = experiment: Infection inhibition assay, MAGIC-5B indicator cells; settings: Table 1
Protocol: The evaluation of HIV-1 inhibition was carried out using MAGIC-5B indicator cells, which stably express the β-galactosidase reporter gene cloned downstream of the HIV-1 LTR promoter. Cells were plated at 8×10^4 cells per well, in 24-well plates and exposed to HIV-1 (x ng p24). Forty-eight hours post-infection, viral infectivity was monitored by quantification of o-nitrophenyl β-D-galactopyranoside hydrolysis from cell lysates (kit). β-galactosidase activity was normalized according to total protein content in the cell lysate. Control wells containing virus and cells only (no drug) and cells only (no virus or drug) were also prepared.

[1] = Cytotoxicity, MTT assay (Table 1); assay type: cell-based; settings: mean
Protocol: The cellular toxicity of the different compounds was evaluated using the MTT assays. […] The selectivity index (SI) was defined as the ratio CC50: IC50 (Table 1).

[2] = system: HIV-1 VLP assembly (Pr55Gag); experiment: microbe, parasite or virus in culture; assay type: cell-based; settings: for SI (ratio CC50:IC50): Table 2
Protocol: Aliquots of Sf9 cells (10^6) were infected with two recombinant baculoviruses at equal multiplicity of infection (MOI of 10 PFU/cell, each). One expressed the HIV-1 Gag precursor (AcMNPV-Pr55Gag or control, p6-deleted AcMNPV-GagΔp6), the other the control Vpr protein (AcMNPV-Vpr) or the LucVpr fusion (AcMNPV-LucVpr). […] To avoid any interference with a possible effect of DMSO, DMSO was kept constant in volume in the different samples. […] Cells were harvested at 48 h pi, and extracellular VLP released in the culture medium were quantitated using luciferase assay. Membrane-enveloped VLP were pelleted and resuspended in lysis KDT buffer (KDT: 0.1M potassium phosphate buffer, pH 7.8, 1 mM DTT, containing 0.2% Triton X100) for 30 min at 37° C. with vortexing every 10 min. Luciferase activity associated with VLP was measured as previously described [10], using a Lumat LB-9501 luminometer (Berthold Technologies, Bad Wildbad, Germany). […] To compensate for eventual negative effects of drugs on LucVpr expression, the luciferase activity was measured in the corresponding cell lysates, obtained after lysis of the pelleted cells with KDT buffer. The results were expressed as relative light units (RLU) per μg protein. The values of the ratio of VLP-associated to intracellular luciferase activity were plotted versus the inhibitor concentration.
Cell culture medium was then harvested at 48 h pi, subjected to the 2-step ultracentrifugation analysis, and each gradient fraction probed for Gag polyprotein and luciferase activity, as above. […] The gradient fractions corresponding to the peak of luciferase activity were pooled, and the VLP contained in these fractions were pelleted, lysed and assayed for luciferase content.
Drug treatment was maintained for a further 24 h, and VLP released in the cell culture medium were pelleted through a sucrose cushion [8]. The amounts of extracellular VLP recovered in the 48 h-pellets obtained in the presence of the different inhibitors were determined using the luciferase assays. After normalization to the luciferase activity determined in the corresponding cell lysates, the values of the ratio of VLP-incorporated to cell-associated luciferase activity were plotted versus the drug concentrations.

[3] = Cytotoxicity, MTT assay (Table 2); assay type: cell-based; settings: for CC50: MTT assay, mean
Protocol: The cellular toxicity of the different compounds was evaluated using the MTT assays. […] The selectivity index (SI) was defined as the CC50 to IC50 ratio.

CA-SP1 cleavage = experiment: HIV-1 maturation inhibition assay, p25 (CA-SP1) to p24 (CA) processing in virion lysate; assay type: cell-based; settings: Western blot (FIG. 2)
Protocol: Two days after transfection, virus-containing supernatants were concentrated by ultracentrifugation through a layer of 20% sucrose at 25 000 rpm for 2 h30. Viral pellets were then resuspended in RIPA lysis buffer [10 mM Tris-HCl (pH 7.4), 1 mM EDTA, 100 mM NaCl, 1% Triton X-100, 0.1% SDS, 0.25% sodium deoxycholate, 0.2% phenylmethylsulfonyl fluoride (PMSF)]. Viral proteins were loaded on a 12.5% SDS-PAGE gel.
To further elucidate the mechanism of action, viral samples used for infection assays were subjected to biochemical characterization (FIG. 2).

HIV-1 virion morphology = experiment: Thin-section electron microscopy of virions from pNL4-3 transfected 293T cells; assay type: cell-based; settings: pNL4-3, 5 μg/ml (FIG. 3)
Protocol: Two days after transfection, 293T cells were processed for thin-layer electron microscopy as follows: cells were fixed in situ with 2.5% glutaraldehyde in cacodylate buffer (pH 7.4) for 60 min at 4° C. Cells were then post-fixed with 2% osmium tetroxide, washed in cacodylate buffer containing 0.5% tanic acid, and embedded in epon (Embed-812, Electron Microscopy Sciences Inc.). Sections were counterstained with uranyl acetate and lead citrate and examined with an Hitachi H7100 transmission electron microscope.
In the absence of compounds, cells transfected with pNL4-3 produced virus particles with the classical mature morphology characterized by the presence of condensed, conical cores (FIG. 3A).

VLP assembly and budding [4] = experiment: Electron microscopy of AcMNPV-Gag-infected Sf9 cells; assay type: cell-based, HIV-1; settings: 5 and 10 μg/ml for 24 h at 24 h pi
Protocol: Baculovirus-infected Sf9 cells were harvested at 48 h pi, pelleted, fixed with 2.5% glutaraldehyde in 0.1 M phosphate buffer, pH 7.5, post-fixed with osmium tetroxide (2% in H2O) and treated with 0.5% tannic acid solution in H2O. The specimens were dehydrated and embedded in Epon (Epon-812; Fulham, Latham, N.Y.). Ultrathin sections were stained with 2.6% alkaline lead citrate and 0.5% uranyl acetate in 50% ethanol, and post-stained with 0.5% uranyl acetate solution in H2O [8,9]. Grids were examined under a Jeol JEM-1400 electron microscope, equipped with an ORIUS™ digitalized camera (Gatan France, 78113-Grandchamp). For statistical EM analyses, a minimum of 30 grid squares containing 10 to 20 cell sections each were examined for counting VLP budding at the cell surface, or budding in intracellular vesicular compartment.
By contrast, control, untreated AcMNPV-Gag-infected Sf9 cells were decorated with VLP budding in abundance from the plasma membrane.

Pr55Gag = target: T1, Pr55Gag (Human immunodeficiency virus type 1 group M subtype B, UniProt P03348); experiment: Chemical cross-linking of intracellular Pr55Gag with BS3; assay type: cell-based, HIV-1; settings: Sf9 cells, 10 μg/ml
T1 construct: AcMNPV-Pr55Gag expressed the full-length wild type (WT) Gag polyprotein (Pr55Gag); expressed in transfected cells; host or cells: Spodoptera frugiperda Sf9 cells infected with recombinant baculovirus AcMNPV-Pr55Gag
Protocol: Aliquots of recombinant baculovirus-infected Sf9 cells (5×10^5 cells) untreated or treated with 16 at 10 ug/ml for 24 h at 24 h pi were centrifuged at low speed, resuspended in 200 μl of PBS containing the cross-linker bis(sulfosuccinimidyl)suberate (BS3; Pierce Biotechnology, Rockford, Ill.) at increasing molarities, ranging from 0 to 50 mM [12], and incubated in this buffer for 30 min at room temperature (RT). Cell samples were then centrifuged, resuspended and lysed in 200 μl 0.015 M NaCl, 0.5 mM phosphate buffer pH 7.3 containing BS3 at the same molarites as in the original mixtures, and further incubated for 30 min at RT. Cell lysates were mixed with 30 μl 6 times concentrated (6×) SDS-sample buffer without β-mercaptoethanol, heated to 100° C. for 1 min, and Gag proteins analyzed by SDS-PAGE and immunoblotting. […]
To further analyse the mechanism of the effect of 16 on Gag polyprotein assembly, untreated and 16-treated (10 μg/ml), Pr55Gag-expressing Sf9 cells were incubated with increasing concentrations of the chemical cross-linker BS3 at 48 h pi for 30 min at room temperature, then lysed in hypotonic medium in the presence of BS3 used in the same range of concentrations. The oligomeric status of the Gag proteins was assessed by SDS-PAGE and Western blot analysis, using anti-Gag antibody, peroxidase-labeled complementary antibody and enhanced chemiluminescence (ECL). […]

VLP assembly and budding [5] = settings: 10 μg/ml (17 μM), previous study [8]; cited from earlier work
HIV-1 VLP = settings: read-out: IC50 previously determined using immuno-radiochemical assay of VLP; reference [8]; cited from earlier work
[6] = Human immunodeficiency virus 1, read-out: IC50, inhibition of HIV-1 VLP assembly, Sf9 cells, mean
[7] = Human immunodeficiency virus 1, read-out: IC50, inhibition of HIV-1 VLP assembly, Sf9 cells, mean ± SEM, n = 4

Row | SMILES | SI (CC50/IC50 ratio) (HIV-1) | CC50 [1] [µM] | SI (ratio CC50:IC50) [2] | CC50 [3] [µM] | inhibition of conversion of uncleaved p25 (CA-SP1) to mature p24 (CA) (CA-SP1 cleavage) | virus morphology / virion maturation by EM (HIV-1 virion morphology) | other results
1 | C=C(C)[C@@H]1CC[C@]2(C(=O)O)CC[C@]3(C)[C@H](CC[C@@H]4[C@@]5(C)CC[C@H](O)C(C)(C)[C@@H]5CC[C@]43C)[C@@H]12 [BA, betulinic acid, reference compound] | 0.85 | 4.52 | 1.1 | 43.8 | – | – | –
2 | C=C(C)[C@@H]1CC[C@]2(C(=O)NCC(=O)O)CC[C@]3(C)C(CCC4[C@@]5(C)CC[C@H](OC(=O)CC(C)(C)C(=O)O)C(C)(C)C5CC[C@]43C)C12 (stereo partly drawn) [Compound 12, N-[3β-(3-carboxy-3-methylbutanoyloxy)-lup-20,29-en-28-oyl]-glycine] | – | – | – | – | – | – | IC50 ([2]; Sf9 cells, mean, read-out: IC50, inhibition of HIV-1 VLP assembly): 5.9 µM
3 | C=C(C)[C@@H]1CC[C@]2(C(=O)NCC(=O)O)CC[C@]3(C)[C@H](CC[C@@H]4[C@@]5(C)CC[C@H](OC(=O)CC(C)(C)C(=O)O)C(C)(C)[C@@H]5CC[C@]43C)[C@@H]12 [Compound 12, N-[3β-(3-carboxy-3-methylbutanoyloxy)-lup-20,29-en-28-oyl]-glycine] | 309.37 | 49.5 | 5.3 | 31.1 | inhibit the CA-SP1 cleavage; also recorded: accumulation of p25 is observed | lacked conical cores | IC50 [2, 6]: 5.9 µM; IC50 [2, 7]: 3.8 ± 1.6 µg/mL; effect on VLP assembly and budding by EM (VLP assembly and budding [4]): net inhibitory effect on VLP assembly and budding
4 | C=C(C)[C@@H]1CC[C@]2(C(=O)NC(CCCCNC(=O)OC(C)(C)C)C(=O)O)CC[C@]3(C)[C@H](CC[C@@H]4[C@@]5(C)CC[C@H](OC(=O)CC(C)(C)C(=O)O)C(C)(C)[C@@H]5CC[C@]43C)[C@@H]12 (stereo partly drawn) [Compound 15, N^2—[O^3-(3-carboxy-3-methylbutyryl)betulinyl]-N^6-Boc-L-lysine] | 199.41 | 33 | 13.0 | 24.7 | inhibit the CA-SP1 cleavage; also recorded: accumulation of p25 is observed | lacked conical cores | IC50 [2, 6]: 1.9 µM; IC50 [2, 7]: 1 to 2 µg/mL; IC50, inhibition of HIV-1 VLP assembly ([2]; Sf9 cells, mean ± SEM, n = 4): 1.6 ± 0.5 µg/mL; effect on VLP assembly and budding by EM (VLP assembly and budding [4]): net inhibitory effect on VLP assembly and budding
5 | C=C(C)[C@@H]1CC[C@]2(C(=O)NCCN)CC[C@]3(C)C(CCC4[C@@]5(C)CC[C@H](OC(=O)CC(C)(C)C(=O)O)C(C)(C)C5CC[C@]43C)C12 (stereo partly drawn) [Compound 16, 4-({28-[(2-aminoethyl)amino]-28-oxolup-20,29-en-3β-yl}oxy)-2,2-dimethyl-4-oxobutanoic acid] | – | – | – | – | – | – | level of cytotoxicity compared to the other drugs [3]: lowest level of cytotoxicity
6 | C=C(C)[C@@H]1CC[C@]2(C(=O)NCCN)CC[C@]3(C)[C@H](CC[C@@H]4[C@@]5(C)CC[C@H](OC(=O)CC(C)(C)C(=O)O)C(C)(C)[C@@H]5CC[C@]43C)[C@@H]12 [Compound 16, 4-({28-[(2-aminoethyl)amino]-28-oxolup-20,29-en-3β-yl}oxy)-2,2-dimethyl-4-oxobutanoic acid] | – | 33.9 | – | 120 | inhibit the CA-SP1 cleavage; also recorded: accumulation of p25 is observed | lacked conical cores | Gag oligomerization status after BS3 cross-linking (Pr55Gag): favored the occurrence and/or the stability and persistence of Gag trimers
7 | C=C(C)[C@@H]1CC[C@]2(C(=O)NC(CCCCN)C(=O)O)CC[C@]3(C)[C@H](CC[C@@H]4[C@@]5(C)CC[C@H](OC(=O)CC(C)(C)C(=O)O)C(C)(C)[C@@H]5CC[C@]43C)[C@@H]12 (stereo partly drawn) [Compound 17, N^2-[3β-(3-carboxy-3-methylbutanoyloxy)lup-20,29-en-28-oyl]-L-lysine] | – | – | – | – | – | – | VLP / particle assembly inhibition (in words) ([2]; FIG. 6): resembled that of 12
8 | C=C(C)[C@@H]1CC[C@]2(C(=O)O)CC[C@]3(C)[C@H](CC[C@@H]4[C@@]5(C)CC[C@H](OC(=O)CC(C)(C)C(=O)O)C(C)(C)[C@@H]5CC[C@]43C)[C@@H]12 [DSB, 3-O-(3′,3′-dimethylsuccinyl)-betulinic acid, reference compound] | – | – | – | – | – | lacked conical cores | IC50 ([2]; Human immunodeficiency virus 1, read-out: IC50, VLP formation): 3.8 to 4.2 µM; IC50 ([2]; Human immunodeficiency virus 1, read-out: IC50, inhibition of HIV-1 VLP assembly): 3 ± 1 µg/mL; IC50 ([2]; Human immunodeficiency virus 1, read-out: concentration for 50% inhibition of VLP formation): 2.2 to 2.5 µg/mL; inhibition of conversion of uncleaved p25 (CA-SP1) to mature p24 (CA) (CA-SP1 cleavage; listed as 2): inhibit the CA-SP1 cleavage; also recorded: accumulation of p25 is observed; effect on VLP budding and egress (VLP assembly and budding [5]): totally abolished VLP budding and egress; IC50 (HIV-1 VLP): 8 to 10 µM
